Columns and labels:
[1] = tested on: HepG2; assay: Cytotoxicity against human HepG2 cells assessed as ATP level after 72 hrs by CellTiter-Glo assay; type: cell-based; conditions: HepG2, 72 h
[2] = target: T1, Thyroid hormone receptor beta (Homo sapiens, UniProt P10828); assay: Inhibition of TRbeta-LBD (unknown origin) interaction to texas red-labeled SRC2-2 peptide by fluorescence polarization assay
T1 sequence (P10828 whole entry): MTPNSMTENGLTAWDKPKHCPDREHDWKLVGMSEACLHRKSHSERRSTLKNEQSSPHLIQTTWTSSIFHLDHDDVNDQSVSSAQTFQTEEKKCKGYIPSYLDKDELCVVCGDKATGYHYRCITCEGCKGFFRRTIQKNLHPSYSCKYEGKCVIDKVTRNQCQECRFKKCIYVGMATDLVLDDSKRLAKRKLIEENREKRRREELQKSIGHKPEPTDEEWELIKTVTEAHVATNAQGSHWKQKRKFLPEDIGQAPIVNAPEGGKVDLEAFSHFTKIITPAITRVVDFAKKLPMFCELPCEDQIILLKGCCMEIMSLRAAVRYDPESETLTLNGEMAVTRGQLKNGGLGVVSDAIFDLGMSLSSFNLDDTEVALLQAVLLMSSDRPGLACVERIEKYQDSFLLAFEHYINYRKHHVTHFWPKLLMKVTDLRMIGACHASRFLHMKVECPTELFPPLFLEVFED

[3] = target: T2, Thyroid hormone receptor alpha (Homo sapiens, UniProt P10827); assay: Inhibition of TRalpha-LBD (unknown origin) interaction to texas red-labeled SRC2-2 peptide by fluorescence polarization assay
T2 sequence (P10827 whole entry): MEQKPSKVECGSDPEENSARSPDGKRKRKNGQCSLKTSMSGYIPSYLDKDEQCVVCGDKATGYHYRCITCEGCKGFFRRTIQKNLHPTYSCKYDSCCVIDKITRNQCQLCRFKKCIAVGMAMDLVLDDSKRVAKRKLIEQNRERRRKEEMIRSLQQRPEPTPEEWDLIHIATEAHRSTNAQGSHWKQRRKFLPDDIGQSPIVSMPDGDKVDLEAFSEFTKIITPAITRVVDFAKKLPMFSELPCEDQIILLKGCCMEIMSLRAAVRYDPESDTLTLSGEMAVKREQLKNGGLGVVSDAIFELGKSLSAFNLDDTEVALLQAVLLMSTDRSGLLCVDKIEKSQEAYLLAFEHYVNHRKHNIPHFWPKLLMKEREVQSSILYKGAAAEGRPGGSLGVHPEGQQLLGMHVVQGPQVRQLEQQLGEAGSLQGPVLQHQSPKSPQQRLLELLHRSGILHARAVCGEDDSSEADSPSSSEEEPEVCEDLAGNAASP

[4] = target: T3, Vitamin D3 receptor (Homo sapiens, UniProt P11473); assay: Inhibition of VDR (unknown origin) interaction to SRC2-3 peptide by fluorescence polarization assay
T3 sequence (P11473 whole entry): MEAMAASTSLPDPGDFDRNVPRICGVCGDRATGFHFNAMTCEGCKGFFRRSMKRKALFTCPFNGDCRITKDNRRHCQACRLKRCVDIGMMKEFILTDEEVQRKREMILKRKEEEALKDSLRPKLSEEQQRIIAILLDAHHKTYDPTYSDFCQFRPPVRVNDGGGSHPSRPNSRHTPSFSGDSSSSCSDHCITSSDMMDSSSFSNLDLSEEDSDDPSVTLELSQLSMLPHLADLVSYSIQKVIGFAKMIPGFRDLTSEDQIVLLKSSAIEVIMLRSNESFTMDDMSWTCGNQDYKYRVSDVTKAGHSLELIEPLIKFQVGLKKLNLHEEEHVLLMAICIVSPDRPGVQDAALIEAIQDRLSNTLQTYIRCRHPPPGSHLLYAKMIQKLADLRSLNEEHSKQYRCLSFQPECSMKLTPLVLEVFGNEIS

Row | SMILES | EC50 [1] [µM] | IC50 [2] [µM] | IC50 [3] [µM] | IC50 [4] [µM]
1 | CN(Cc1ccccc1)C(=O)C1CCN(C(=O)c2ccc(S(C)(=O)=O)c([N+](=O)[O-])c2)CC1 | > 27 | > 60 | > 60 | > 60
2 | CS(=O)(=O)c1ccc(C(=O)NCCC(=O)N2CCC(c3ccccc3)CC2)cc1[N+](=O)[O-] | > 27 | > 60 | > 60 | > 60
3 | CS(=O)(=O)c1ccc(C(=O)N2CCC(C(=O)N3CCc4ccccc4C3)CC2)cc1[N+](=O)[O-] | > 27 | > 60 | > 60 | > 60
4 | CC1CCN(C(=O)CN(C)C(=O)c2ccc(S(C)(=O)=O)c([N+](=O)[O-])c2)CC1 | > 27 | > 60 | > 60 | > 60
5 | CS(=O)(=O)c1ccc(C(=O)NCC(=O)N(Cc2ccccc2)c2ccccc2)cc1[N+](=O)[O-] | > 27 | 20 | > 60 | > 60
6 | CS(=O)(=O)c1ccc(C(=O)NCCC(=O)N2CCN(c3ccc(C(F)(F)F)cc3)CC2)cc1[N+](=O)[O-] | > 27 | > 60 | > 60 | > 60
7 | CN(Cc1cccc(F)c1)C(=O)CCNC(=O)c1ccc(S(C)(=O)=O)c([N+](=O)[O-])c1 | 11.2 | > 60 | 29 | > 60
8 | CS(=O)(=O)c1ccc(C(=O)N2CCC(C(=O)N(Cc3ccccc3)Cc3ccccc3)CC2)cc1[N+](=O)[O-] | > 27 | > 60 | > 60 | > 60
9 | CN(CC(=O)N1CCN(c2ccc(C(F)(F)F)cc2)CC1)C(=O)c1ccc(S(C)(=O)=O)c([N+](=O)[O-])c1 | 11.9 | > 60 | > 60 | > 60
10 | CN(Cc1cccc(F)c1)C(=O)CN(C)C(=O)c1ccc(S(C)(=O)=O)c([N+](=O)[O-])c1 | > 27 | > 60 | > 60 | > 60
11 | CC(C)N(C(=O)C1CCN(C(=O)c2ccc(S(C)(=O)=O)c([N+](=O)[O-])c2)CC1)C(C)C | > 27 | > 60 | > 60 | > 60
12 | CCCN(C(=O)CCCNC(=O)c1ccc(S(C)(=O)=O)c([N+](=O)[O-])c1)c1ccccc1 | > 27 | > 60 | > 60 | > 60
13 | CS(=O)(=O)c1ccc(C(=O)N2CCC(C(=O)N3CCN(c4ccc(F)cc4)CC3)CC2)cc1[N+](=O)[O-] | > 27 | > 60 | > 60 | > 60
14 | CC1CCN(C(=O)C2CCN(C(=O)c3ccc(S(C)(=O)=O)c([N+](=O)[O-])c3)CC2)CC1 | > 27 | > 60 | > 60 | > 60
15 | CN(CC(=O)N1CCN(c2ccccc2F)CC1)C(=O)c1ccc(S(C)(=O)=O)c([N+](=O)[O-])c1 | 10.3 | > 60 | > 60 | > 60
16 | CN(CC(=O)N1CCCCC1)C(=O)c1ccc(S(C)(=O)=O)c([N+](=O)[O-])c1 | 11.3 | > 60 | > 60 | > 60
17 | CC1Cc2ccccc2N1C(=O)CN(C)C(=O)c1ccc(S(C)(=O)=O)c([N+](=O)[O-])c1 (stereo not given) | 5.5 | > 60 | > 60 | > 60
18 | CS(=O)(=O)c1ccc(C(=O)NCCC(=O)N2CCN(c3ccccc3)CC2)cc1[N+](=O)[O-] | > 27 | > 60 | > 60 | > 60
19 | CS(=O)(=O)c1ccc(C(=O)NCC(=O)N2CCC(c3ccccc3)CC2)cc1[N+](=O)[O-] | > 27 | > 60 | 44 | 37
20 | CC1CCN(C(=O)CCNC(=O)c2ccc(S(C)(=O)=O)c([N+](=O)[O-])c2)CC1 | > 27 | > 60 | > 60 | > 60

Source: ChEMBL document CHEMBL2346513, “Synthesis and evaluation of methylsulfonylnitrobenzamides (MSNBAs) as inhibitors of the thyroid hormone receptor-coactivator interaction” (Bioorg Med Chem Lett, 2013)
